Calls of active or inactive are those of the source. How the calls were made is not given here.
System: rodent carcinogenicity bioassays, tumor incidence
Experiment: CCRIS carcinogenicity studies
Procedure, shortened: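 Archive of carcinogenicity, mutagenicity, tumor promotion and tumor inhibition results drawn from journals, NCI reports and other sources, expert-reviewed; covers 1985-2011 and is no longer updated.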

Structure (SMILES): C=Cc1ccccc1
- carcinogen call (Species: MOUSE, Strain/Sex: B6C3F1/FEMALE, Route: GAVAGE, Dose: 0, 150, 300 MG/KG FOR 78 WK (STUDY DURATION: 91 WK), Dose: 0, 150, 300 MG/KG FOR 78 WK (STUDY DURATION: 91 WK)): inactive; negative
- carcinogen call (Species: MOUSE, Strain/Sex: B6C3F1/MALE, Route: GAVAGE, Dose: 0, 150, 300 MG/KG FOR 78 WK (STUDY DURATION: 91 WK), Dose: 0, 150, 300 MG/KG FOR 78 WK (STUDY DURATION: 91 WK), Tumor Site: Type of Lesion: LUNG: ADENOMA, CARCINOMA): equivocal
- carcinogen call (Species: MOUSE, Strain/Sex: C57BL/FEMALE, Route: GAVAGE, Dose: 0, 300 MG/KG BW IN 0.1 ML OLIVE OIL FOR LIFE BEGINNING POST WEANING ADMINISTERED TO OFFSPRING OF FEMALES GIVEN 1350 MG/K): inactive; negative
- carcinogen call (Species: MOUSE, Strain/Sex: C57BL/FEMALE, Route: GAVAGE, Dose: 0, 300 MG/KG BW IN 0.1 ML OLIVE OIL ONCE ON DAY 17 OF PREGNANCY (STUDY DURATION: 120 WK)): inactive; negative
- carcinogen call (Species: MOUSE, Strain/Sex: C57BL/MALE, Route: GAVAGE, Dose: 0, 300 MG/KG BW IN 0.1 ML OLIVE OIL FOR LIFE BEGINNING POST WEANING ADMINISTERED TO OFFSPRING OF FEMALES GIVEN 300 MG/KG): inactive; negative
- carcinogen call (Species: MOUSE, Strain/Sex: CD-1/FEMALE, Route: INHALATION, Dose: 0, 20, 40, 80, 160 PPM IN CHAMBER FOR 6 HR/D 5D/WK FOR 98 WK (STUDY DURATION: 98 WK), Dose: 0, 20, 40, 80, 160 PPM IN CHAMBER FOR 6 HR/D 5D/WK FOR 98 WK (STUDY DURATION: 98 WK), Tumor Site: Type of Lesion: LUNG: BRONCHIOLOALVEOLAR ADENOMA, BRONCHIOLOALVEOLAR CARCINOMA): active; positive
- carcinogen call (Species: MOUSE, Strain/Sex: CD-1/MALE, Route: INHALATION, Dose: 0, 20, 40, 80, 160 PPM IN CHAMBER FOR 6 HR/D 5D/WK FOR 104 WK (STUDY DURATION: 104 WK), Dose: 0, 20, 40, 80, 160 PPM IN CHAMBER FOR 6 HR/D 5D/WK FOR 104 WK (STUDY DURATION: 104 WK), Tumor Site: Type of Lesion: LUNG: BRONCHIOLOALVEOLAR ADENOMA): active; positive
- carcinogen call (Species: MOUSE, Strain/Sex: O20/FEMALE, Route: GAVAGE, Dose: 0, 1350 MG/KG BW IN 0.1 ML OLIVE OIL FOR 16 WK POST WEANING ADMINISTERED TO OFFSPRING OF FEMALES GIVEN 1350 MG/KG ON DAY, Tumor Site: Type of Lesion: LUNG: ADENOMA OR CARCINOMA): active; positive
- carcinogen call (Species: MOUSE, Strain/Sex: O20/FEMALE, Route: GAVAGE, Dose: 0, 1350 MG/KG BW IN 0.1 ML OLIVE OIL ONCE ON DAY 17 OF PREGNANCY (STUDY DURATION: 120 WK)): inactive; negative
- carcinogen call (Species: MOUSE, Strain/Sex: O20/MALE,FEMALE, Route: GAVAGE, Tumor Site: Type of Lesion: LUNG: ADENOMA, ADENOCARCINOMA): active; positive
- carcinogen call (Species: MOUSE, Strain/Sex: O20/MALE, Route: GAVAGE, Dose: 0, 1350 MG/KG BW IN 0.1 ML OLIVE OIL FOR 16 WK POST WEANING ADMINISTERED TO OFFSPRING OF FEMALES GIVEN 1350 MG/KG ON DAY, Tumor Site: Type of Lesion: LUNG: ADENOMA OR CARCINOMA): active; positive
- carcinogen call (Species: MOUSE, Strain/Sex: STRAIN-A/FEMALE, Route: INTRAPERITONEAL, Dose: 0, 10 UMOL IN 0.1 ML OLIVE OIL 3/WK FOR 20 DOSES (TOTAL DOSE: 200 UMOL) (STUDY DURATION: 27 WK)): inactive; negative
- carcinogen call (Species: RAT, Strain/Sex: BDIV/FEMALE, Route: GAVAGE, Dose: 0, 500 MG/KG BW IN 0.3 ML OLIVE OIL FOR LIFE BEGINNING POST WEANING ADMINISTERED TO OFFSPRING OF FEMALES GIVEN 1350 MG/K): inactive; negative
- carcinogen call (Species: RAT, Strain/Sex: BDIV/FEMALE, Route: GAVAGE, Dose: 0, 1350 MG/KG BW IN 0.3 ML OLIVE OIL ONCE ON DAY 17 OF PREGNANCY (STUDY DURATION: 120 WK)): inactive; negative
- carcinogen call (Species: RAT, Strain/Sex: BDIV/MALE, Route: GAVAGE, Dose: 0, 500 MG/KG BW IN 0.3 ML OLIVE OIL FOR LIFE BEGINNING POST WEANING ADMINISTERED TO OFFSPRING OF FEMALES GIVEN 1350 MG/K): inactive; negative
- carcinogen call (Species: RAT, Strain/Sex: F344/FEMALE, Route: GAVAGE, Dose: 0, 500 MG/KG FOR 103 WK (STUDY DURATION: 104 WK), 1,000, 2,000 MG/KG FOR 78 WK (STUDY DURATION: 105 WK), Dose: 0, 500 MG/KG FOR 103 WK (STUDY DURATION: 104 WK), 1,000, 2,000 MG/KG FOR 78 WK (STUDY DURATION: 105 WK)): inactive; negative
- carcinogen call (Species: RAT, Strain/Sex: F344/MALE, Route: GAVAGE, Dose: 0, 500 MG/KG FOR 103 WK (STUDY DURATION: 104 WK), 1,000, 2,000 MG/KG FOR 78 WK (STUDY DURATION: 105 WK), Dose: 0, 500 MG/KG FOR 103 WK (STUDY DURATION: 104 WK), 1,000, 2,000 MG/KG FOR 78 WK (STUDY DURATION: 105 WK)): inactive; negative
- carcinogen call (Species: RAT, Strain/Sex: SPRAGUE-DAWLEY/FEMALE, Route: GAVAGE, Dose: 0, 50, 250 MG/KG BW IN OLIVE OIL 1/D 4-5 D/WK FOR 52 WK (STUDY DURATION: LIFETIME), Dose: 0, 50, 250 MG/KG BW IN OLIVE OIL 1/D 4-5 D/WK FOR 52 WK (STUDY DURATION: LIFETIME), Tumor Site: Type of Lesion: [BRAIN WAS ONLY SITE EVALUATED]): inactive; negative
- carcinogen call (Species: RAT, Strain/Sex: SPRAGUE-DAWLEY/FEMALE, Route: INHALATION, Dose: 0, 25, 50, 100, 200, 300 PPM 4 HR/D, 5 D/WK FOR 52 WK (STUDY DURATION: LIFESPAN), Dose: 0, 25, 50, 100, 200, 300 PPM 4 HR/D, 5 D/WK FOR 52 WK (STUDY DURATION: LIFESPAN), Tumor Site: Type of Lesion: MAMMARY GLAND: BENIGN TUMOR, MALIGNANT TUMOR): active; positive
- carcinogen call (Species: RAT, Strain/Sex: SPRAGUE-DAWLEY/FEMALE, Route: INHALATION, Dose: 0, 25, 50, 100, 200, 300 PPM IN AIR 4 HR/D 5 D/WK FOR 52 WK (STUDY DURATION: LIFETIME), Dose: 0, 25, 50, 100, 200, 300 PPM IN AIR 4 HR/D 5 D/WK FOR 52 WK (STUDY DURATION: LIFETIME), Tumor Site: Type of Lesion: [BRAIN WAS ONLY SITE EVALUATED]): inactive; negative
- carcinogen call (Species: RAT, Strain/Sex: SPRAGUE-DAWLEY/FEMALE, Route: INTRAGASTRIC, Dose: 0, 50, 250 MG/KG IN OLIVE OIL 1/D, 4-5 D/WK FOR 52 WK (STUDY DURATION: LIFESPAN), Dose: 0, 50, 250 MG/KG IN OLIVE OIL 1/D, 4-5 D/WK FOR 52 WK (STUDY DURATION: LIFESPAN)): inactive; negative
- carcinogen call (Species: RAT, Strain/Sex: SPRAGUE-DAWLEY/FEMALE, Route: INTRAPERITONEAL, Dose: 0, 50 MG/RAT IN OLIVE OIL, 1/2 MO FOR 8 MO (STUDY DURATION: LIFESPAN)): inactive; negative
- carcinogen call (Species: RAT, Strain/Sex: SPRAGUE-DAWLEY/FEMALE, Route: SUBCUTANEOUS, Dose: 0, 50 MG/RAT IN OLIVE OIL ONCE (STUDY DURATION: LIFESPAN)): inactive; negative
- carcinogen call (Species: RAT, Strain/Sex: SPRAGUE-DAWLEY/MALE, Route: GAVAGE, Dose: 0, 50, 250 MG/KG BW IN OLIVE OIL 1/D 4-5 D/WK FOR 52 WK (STUDY DURATION: LIFETIME), Dose: 0, 50, 250 MG/KG BW IN OLIVE OIL 1/D 4-5 D/WK FOR 52 WK (STUDY DURATION: LIFETIME), Tumor Site: Type of Lesion: [BRAIN WAS ONLY SITE EVALUATED]): inactive; negative
- carcinogen call (Species: RAT, Strain/Sex: SPRAGUE-DAWLEY/MALE, Route: INHALATION, Dose: 0, 25, 50, 100, 200, 300 PPM 4 HR/D, 5 D/WK FOR 52 WK (STUDY DURATION: LIFESPAN), Dose: 0, 25, 50, 100, 200, 300 PPM 4 HR/D, 5 D/WK FOR 52 WK (STUDY DURATION: LIFESPAN)): inactive; negative
- carcinogen call (Species: RAT, Strain/Sex: SPRAGUE-DAWLEY/MALE, Route: INHALATION, Dose: 0, 25, 50, 100, 200, 300 PPM IN AIR 4 HR/D 5 D/WK FOR 52 WK (STUDY DURATION: LIFETIME), Dose: 0, 25, 50, 100, 200, 300 PPM IN AIR 4 HR/D 5 D/WK FOR 52 WK (STUDY DURATION: LIFETIME), Tumor Site: Type of Lesion: [BRAIN WAS ONLY SITE EVALUATED]): inactive; negative
- carcinogen call (Species: RAT, Strain/Sex: SPRAGUE-DAWLEY/MALE, Route: INTRAGASTRIC, Dose: 0, 50, 250 MG/KG IN OLIVE OIL 1/D, 4-5 D/WK FOR 52 WK (STUDY DURATION: LIFESPAN), Dose: 0, 50, 250 MG/KG IN OLIVE OIL 1/D, 4-5 D/WK FOR 52 WK (STUDY DURATION: LIFESPAN)): inactive; negative
- carcinogen call (Species: RAT, Strain/Sex: SPRAGUE-DAWLEY/MALE, Route: INTRAPERITONEAL, Dose: 0, 50 MG/RAT IN OLIVE OIL, 1/2 MO FOR 8 MO (STUDY DURATION: LIFESPAN)): inactive; negative
- carcinogen call (Species: RAT, Strain/Sex: SPRAGUE-DAWLEY/MALE, Route: SUBCUTANEOUS, Dose: 0, 50 MG/RAT IN OLIVE OIL ONCE (STUDY DURATION: LIFESPAN)): inactive; negative
- carcinogen call (Species: RAT, Strain/Sex: STRAIN-CD/FEMALE, Route: INHALATION, Dose: 0, 50, 200, 500, 1000 PPM 6HR/D 5 D/WK FOR 104 WK (STUDY DURATION:107 WK), Dose: 0, 50, 200, 500, 1000 PPM 6HR/D 5 D/WK FOR 104 WK (STUDY DURATION:107 WK)): inactive; negative
- carcinogen call (Species: RAT, Strain/Sex: STRAIN-CD/MALE, Route: INHALATION, Dose: 0, 50, 200, 500, 1000 PPM 6 HR/D 5 D/WK FOR 104 WK (STUDY DURATION:107 WK), Dose: 0, 50, 200, 500, 1000 PPM 6 HR/D 5 D/WK FOR 104 WK (STUDY DURATION:107 WK)): inactive; negative

From PubChem BioAssay AID1259411 (Chemical Carcinogenesis Research Information System (CCRIS), 2018)
